The Kd is the constant that tells how readily two partners part at equilibrium. A higher Kd goes with a looser complex.

The assay has as its target Opc (Neisseria meningitidis, UniProt Q7DDI3). The format is binding. The following applies: Opc+ outer membrane preparation (4 mg/ml, PBS) in cell, 100 µM glycan in syringe; Opc- preparation and PBS controls subtracted.

Opc, sequence (Q7DDI3 20-272 limits assumed): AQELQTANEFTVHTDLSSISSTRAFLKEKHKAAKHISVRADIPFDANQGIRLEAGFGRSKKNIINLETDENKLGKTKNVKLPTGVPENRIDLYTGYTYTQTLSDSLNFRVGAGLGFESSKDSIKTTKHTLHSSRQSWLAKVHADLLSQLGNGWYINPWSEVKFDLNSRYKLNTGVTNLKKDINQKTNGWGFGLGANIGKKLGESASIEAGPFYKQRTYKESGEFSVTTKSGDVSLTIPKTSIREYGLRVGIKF

`CC(=O)N[C@H]1[C@H]([C@H](O)[C@H](O)CO)O[C@@](OC[C@H]2O[C@@H](O[C@H]3[C@H](O)[C@@H](O)C(O)O[C@@H]3CO)[C@H](O)[C@@H](O)[C@H]2O)(C(=O)O)C[C@@H]1O` (stereo partly drawn) [11B, Neu5Acα2-6Galβ1-4Glc] showed a Kd of 713 ± 140 nM.
The value for `C[C@@H]1O[C@@H](O[C@H]2C(O)O[C@H](CO)[C@H](O)[C@@H]2O)[C@@H](O)[C@H](O)[C@@H]1O` (stereo partly drawn) [compound 71, Fucα1-2Galβ] was 2950 ± 590 nM; that for `CC(=O)N[C@H]1[C@H](O[C@H]2[C@@H](O)[C@@H](CO)O[C@@H](O[C@H]3[C@H](O)[C@@H](O)C(O)O[C@@H]3CO)[C@@H]2O)O[C@H](CO)[C@@H](O[C@@H]2O[C@H](CO)[C@H](O)[C@H](O)[C@H]2O)[C@@H]1O` (stereo partly drawn) [compound 383, Galβ1-4GlcNAcβ1-3Galβ1-4Glcβ] was 1770 ± 690 nM.

For the origin of these results see publication PMC5515891 (Scientific Reports, 2017).
